Tests used:
DU-145 = type: cell-based, Human; details: DU-145, 48 hours
FADU = type: cell-based, Human; details: FADU, 48 hours
NCI-H460 = type: cell-based, Human; details: NCI-H460, 48 hours
SW1736 = type: cell-based, Human; details: SW1736, 48 hours
SK-N-SH = type: cell-based, Human; details: SK-N-SH, 48 hours
BXPC-3 = type: cell-based, Human; details: BXPC-3, 48 hours
[1] = tested on: P388 lymphocytic leukemia; type: cell-based, Murine; details: murine P-388 leukemia, 48 hours
[2] = tested on: eight bacteria and two fungi tested; assay: Disk susceptibility testing, whole microbe panel; type: cell-based; details: for Microbe(s) inhibited: at 100 μg/disk, eight bacteria and two fungi
Solubility in water = details: for Solubility: mg per 1 ml water at 25° C.
SK-Mel-3 = type: cell-based, Human; details: SK-Mel-3, 48 hours
Neisseria gonorrhoeae = type: cell-based; details: disk susceptibility; for Minimum inhibitory amount per disk: Neisseria gonorrhoeae
Candida albicans = assay: Disk susceptibility testing, Candida albicans; type: cell-based
Cryptococcus neoformans = assay: Disk susceptibility testing, Cryptococcus neoformans; type: cell-based
full-panel NCl screen = details: full-panel NCI screen, previously reported, cited from earlier work

Molecule	GI50 Prostate DU-145 (DU-145) [mg/L]	GI50 Pharynx FADU (FADU) [mg/L]	GI50 Lung-NSC NCI-H460 (NCI-H460) [mg/L]	GI50 Thyroid SW1736 (SW1736) [mg/L]	GI50 Neuroblast SK-N-SH (SK-N-SH) [mg/L]	GI50 Pancreas BXPC-3 (BXPC-3) [mg/L]	ED50 P-388 [1] [mg/L]	Microbe(s) inhibited [2]	Solubility (Solubility in water) [mg/mL]	GI50 Melanoma SK-Mel-3 (SK-Mel-3) [mg/L]	Minimum inhibitory amount per disk (Neisseria gonorrhoeae)	Minimum inhibitory concentration (Candida albicans)	Minimum inhibitory concentration (Cryptococcus neoformans)	antimicrobial growth inhibition (in words) ([2]; disk susceptibility, bacteria and fungi tested)	solubility in water (in words) (Solubility in water; water)	growth inhibition of Neisseria gonorrhoeae (in words) (Neisseria gonorrhoeae)	Pearson correlation coefficient, TGI-COMPARE differential cytotoxicity profile versus combretastatin A-4 1a (full-panel NCl screen)	GI50 (full-panel NCl screen; read-out: mean panel GI50 concentration, quadruplicate, three concentration ranges) [nM]
COc1ccc(/C=C\c2cc(OC)c(OC)c(OC)c2)cc1OP(=O)([O-])[O-].[Mg+2] [Compound 5d, Magnesium combretastatin A-4 3-O-phosphate]	0.01	0.031	0.017	6.8	0.01	0.43	0.0018	* (At 100 μg/disk no inhibition of the eight bacteria and two fungi tested.)	7									
Adenosine combretastatin A-4 3′-O-phosphate [Compound 5m]	0.036	0.032	0.038	0.092	0.034	11.6	0.16	* (At 100 μg/disk no inhibition of the eight bacteria and two fungi tested.)		0.35								
Calcium combretastatin A-4 3′-O-phosphate [Compound 5a]	0.001	0.001	0.001	0.010	0.015	0.22	0.0011	* (At 100 μg/disk no inhibition of the eight bacteria and two fungi tested.)		0.0036								
Cesium combretastatin A-4 3′-O-phosphate [Compound 5b]	0.0028	0.0023	0.0032	8.4	0.011	0.31	0.001	* (At 100 μg/disk no inhibition of the eight bacteria and two fungi tested.)	>50	0.0043								
Cinchonine combretastatin A-4 3-O-phosphate [Compound 5n]	0.030	0.024	0.037	0.089		1.6	0.020		4		25–50 μg/disk							
Glucosamine combretastatin A-4 3′-O-phosphate [Compound 5o]	0.026	0.015	0.034	0.061	0.016	4.5	0.0164	* (At 100 μg/disk no inhibition of the eight bacteria and two fungi tested.)	15									
Imidazole combretastatin A-4 3-O-phosphate [Compound 5g]	0.001	0.01	0.004	0.011	0.01	0.39	0.0025	* (At 100 μg/disk no inhibition of the eight bacteria and two fungi tested.)		0.01								
Lithium combretastatin A-4 3-O-phosphate [Compound 5c]	0.0025	0.003	0.004	0.030	0.016	0.31	0.0012	* (At 100 μg/disk no inhibition of the eight bacteria and two fungi tested.)										
Morpholine combretastatin A-4 3′-O-phosphate [Compound 5h]	0.0024	0.0016	0.003	0.02	0.039	0.26	0.0023	* (At 100 μg/disk no inhibition of the eight bacteria and two fungi tested.)		0.0042								
Piperazine combretastatin A-4 3′-O-phosphate [Compound 5i]	0.0011	0.0018	0.0028	23.5	0.021	0.19	0.0016			0.0036	25–50 μg/disk	50–100 μg/disk	25–50 μg/disk	inhibitory to opportunistic fungi				
Piperidine combretastatin A-4 3′-O-phosphate [Compound 5j]	0.01	0.01	0.01	0.50	0.017	0.30	0.0029	* (At 100 μg/disk no inhibition of the eight bacteria and two fungi tested.)	5	0.01								
Pyrazole combretastatin A-4 3-O-phosphate [Compound 5k]	0.01	0.01	0.01	4.6	0.014	0.23	0.0023	* (At 100 μg/disk no inhibition of the eight bacteria and two fungi tested.)		0.01								
Pyridine combretastatin A-4 3′-O-phosphate [Compound 5l]	0.036	0.032	0.038	0.01	0.03	11.6	<0.001	* (At 100 μg/disk no inhibition of the eight bacteria and two fungi tested.)	3	0.35								
Quinidine combretastatin A-4 3-O-phosphate [Compound 5q]	0.0036	0.0033	0.0039	0.11		0.43	0.0032				6.25–12.5 μg/disk							
Quinine combretastatin A-4 3′-O-phosphate [Compound 5p]	0.0048	0.006	0.0042	7.5		2.2	0.027	* (At 100 μg/disk no inhibition of the eight bacteria and two fungi tested.)										
Sodium (E)-combretastatin A-4 3′-O-phosphate [Compound 4c]	0.044	0.071	0.038	11.2	3.1	4.0	0.02		4	0.036	50–100 μg/disk				sparingly soluble in water			
Sodium (Z)-combretastatin A-4 3′-O-phosphate [Compound 3d]	0.0072	0.0045	0.0035	0.0061	0.0025	0.23	0.00292		20		50–100 μg/disk					inhibited growth	0.91	6.89
Zinc combretastatin A-4 3′-O-phosphate [Compound 5f]	0.0062	0.0070	0.0074	0.059	0.024	1.1	0.0343	* (At 100 μg/disk no inhibition of the eight bacteria and two fungi tested.)	11	1.0								
